Here are results for one substance from patent US20230099822A1, “MR1 LIGANDS AND PHARMACEUTICAL COMPOSITIONS FOR IMMUNOMODULATION” (UNIVERSITÄT BASEL, priority 2020, published 2023).

The assay has as its system MR1T cell clones AVA34, AC1A4 and MAIT clone MRC25. The assay is described as follows: MR1 tetramer staining of T cell clones. Format: binding, human. As for the experimental part: Correct protein conformation was confirmed by performing a plate-bound activation of the MR1T cell clone DGB129. Refolded MR1-compound protein was serially diluted in PBS (1.5-100 μg/mL) and added to a high-protein-binding plate (Nunc, Cat #439454) for 2 h at 37° C. The wells were washed thoroughly with PBS before addition of 5×10^4 cells that were left overnight at 37° C. IL-13 ELISA was then used as an activation readout. The functional monomer was then biotinylated using BirA-500 biotinylation kit (Avidity, Cat #Bulk BirA) overnight at 4° C. Excess biotin was removed using S75 10/30 (GE Healthcare, 29148721) gel filtration before tetramerization with phycoerythrin (PE) streptavidin (Prozyme, Cat #P JRS25) in a 4:1 molar ratio. As control MR1 tetramers, human MR1-5-OP-RU and human MR1-6-FP labelled with APC, PE or AlexaFluor488 were used (The MR1 tetramer technology was developed jointly by Dr. James McCluskey, Dr. Jamie Rossjohn, and Dr. David Fairlie, and the material was produced by the NIH Tetramer Core Facility as permitted to be distributed by the University of Melbourne). […]
Samples were acquired on LSR Fortessa flow cytometer with the FACS Diva software (Becton Dickinson). […] When PBMCs were analyzed, CD14^+ and CD19^+ cells were excluded by staining with fluorescent antibodies detected in the same channel as the Live/Dead staining. All data was analyzed using FlowJo (LLC).

For the substance “MR1-6-FP tetramers: control MR1 tetramer, human MR1-6-FP, produced by the NIH Tetramer Core Facility”, the “tetramer staining of MR1T clone AVA34” value is “not”.
